Where a name gives a salt, the structure may show the parent alone.
Experiments:
[1] = test system: atopic dermatitis patients; conditions: cited from earlier work
[2] = test system: LPS-induced nasal neutrophilia in rats; assay: In Vivo Assay 2: LPS induced nasal neutrophilia in rats, intranasal administration; set-up: species or system rat; conditions: for inhibition (arithmetic mean) of LPS-induced nasal neutrophilia: rats, i.n. aqueous solution, about 30 minutes prior to LPS
Text: This assay is an animal model of acute inflammation in the nose—specifically neutrophilia induced by lipopolysaccharide (LPS)— and allows the study of putative inhibition of such neutrophilia (anti-inflammatory effect) by an intranasally (i.n.) administered PDE4 inhibitor (“drug”). The PDE4 inhibitor is preferably in the form of an aqueous suspension or aqueous solution. Bolus, i.n. administration allows topical delivery to the nose.
Animals: Male CD rats (Sprague Dawley derived), weighing between 300-350 g are supplied by Charles River, UK and transported to the test site. On arrival at the test site, the animals are housed in groups of 4 or 5 per cage and complete a minimum acclimatisation period of 7 days. The animals are housed in solid bottomed cages using grade 8 sawdust. The bedding and nesting materials are changed 3 times per week. Diet comprises SDS diet R1 pelleted food given ad lib. Pasteurised animal grade drinking water is supplied and changed daily.
Lipopolysaccharide (Serotype: 0127:B8, e.g. available from Sigma, UK; e.g. L3129 prepared by phenol extraction) is used for all studies and is dissolved in phosphate-buffered saline (PBS).
Tween 80™ (e.g. available from Sigma e.g. 023K 01575). A mixture of 0.2% Tween 80™ in phosphate buffered saline (PBS) is prepared as vehicle for solution compositions. The Sigma catalogue 2004-2005 and The Handbook of Pharmaceutical Excipients (HPE) 4th edition 2003 pp. 479-483 define Tween 80™ as a brand of polysorbate 80 (according to HPE, polysorbate 80 is also named polyoxyethylene 20 sorbitan monooleate, i.e. having been copolymerised with about 20 moles of ethylene oxide for each mole of sorbitol and/or sorbitol anhydrides used).
The PDE4 inhibitor compound or salt of the invention (“drug”) is preferably used in size-reduced (e.g. micronised) form, for example according to the Micronisation Example(s) disclosed herein.
A solution of compound (0.7 mg/ml) is generally prepared by adding 0.2% Tween 80™ in phosphate buffered saline (PBS) to a pre-weighed micronised sample of the drug. The solution composition is sonicated, e.g. for approximately 2 min, and is observed to be a solution (if it is a solution) by visual assessment. A fixed volume of 50 microlitres (25 microlitres into each nostril) of either the drug-containing solution composition or a saline/Tween 80™ vehicle is administered to all animals. Each animal weighs, on average, 350 g. To achieve a dose of 100 μg/kg (100 ug/kg), each animal receives a total of 35 μg (35 ug) of the drug. The dose volume is 50 microlitres (25 microlitres to each nostril), and therefore a concentration of 35 μg (ug) per 50 microlitres (0.7 mg/ml) is prepared. To achieve lower dose concentrations, serial dilutions are prepared in saline/Tween 80™
Intranasal dosing with the PDE4 inhibitor (drug): Rats are anaesthetised by placing the animals in a sealed Perspex chamber and exposing them to a gaseous mixture of isofluorane (5%), nitrous oxide (2 L/min) and oxygen (1 L/min). Once anaesthetised, the animals are i.n. dosed with vehicle or PDE4 inhibitor aqueous compositions using a 10-100-microlitre-range Gilson pipette and plastic disposable tip. A volume of 25 microlitres is administered into each nostril by carefully inserting the pipette tip into the nostril and dispensing the required volume. When the dosing procedure is completed, the animal is returned to the cage and observed at regular intervals until it had recovered from the effects of the anaesthetic. […]

[3] = test system: LPS-induced pulmonary neutrophilia in rats; assay: In Vivo Assay 1: LPS induced pulmonary neutrophilia in rats, intratracheal administration; set-up: species or system rat; conditions: rats, i.t. dry powder blended in lactose; for arithmetic mean inhibition of LPS-induced pulmonary neutrophilia: about 2 hours prior to LPS
Text: This assay is an animal model of acute inflammation in the lung—specifically neutrophilia induced by lipopolysaccharide (LPS)—and allows the study of putative inhibition of such neutrophilia (anti-inflammatory effect) by an intratracheally (i.t.) administered PDE4 inhibitor (“drug”). The PDE4 inhibitors are suitably in dry powder, aqueous solution or aqueous suspension form. I.t. administration is one model of inhaled administration, allowing topical delivery to the lung.
Animals: Male CD (Sprague Dawley Derived) rats supplied by Charles River, United Kingdom are housed in groups of 5 rats per cage, acclimatised after delivery for at least 7 days with bedding/nesting material regularly changed, fed on SDS diet R1 pelleted food given ad lib, and supplied with daily-changed pasteurised animal grade drinking water.
Device for dry powder administration: For these studies, a Penn Century DP-4 dry powder intratracheal (i.t.) delivery device (insufflator) is used for administration of a dry powder blend of vehicle (inhalation grade lactose) and the PDE4 inhibitor compound or salt of the invention (“drug”). Each device is numbered and the sample loading chamber is unscrewed from the main device and weighed. The i.t. delivery needle is also weighed. The drug+lactose blend or inhalation grade lactose (vehicle control) is then added to the sample chamber and this is then re-weighed. The sample chamber is fitted back on to the main device to prevent any drug being lost. This procedure is repeated for all of the Penn century devices to be used in the study (one separate device for each animal). After dosing to the animals, the sample chambers and needles are re-weighed in order to determine the amount of sample that was expelled from the device.
Device for aqueous solution administration: A blunt dosing needle, whose forward end is slightly angled to the needle axis, is used, with a flexible plastic portex canula inserted into the needle. The portex cannula is inserted into the lumen of the blunt stainless steel dosing needle and this is carefully inserted into the back of the animal's throat and into the trachea via the larynx. A known volume (200 microlitres) of the vehicle (0.2% Tween 80™ in saline) or of the solution (or suspension) drug composition is administered into the trachea using a plastic syringe that is attached to the portex cannula and dosing needle. A new internal cannula is used for each different drug group. After dosing, the needle is removed from the trachea and the animals are removed from the table and continually observed until they recover from the effects of anaesthesia. The animals are then returned to the holding cages and given free access to food and water, and are observed and any unusual behavioural changes noted. (Aqueous suspensions can be handled generally similarly.)
Drugs and Materials: Lipopolysaccharide (LPS) (Serotype:0127:B8, e.g. from Sigma, UK; e.g. L3129 prepared by phenol extraction) is dissolved in phosphate-buffered saline (PBS).
For dry powder, aqueous solution or aqueous suspension administration, PDE4 inhibitors are preferably used in size-reduced (e.g. micronised) form, for example according to the Micronisation Example(s) disclosed herein.
For dry powder administration of the drug, the PDE4 inhibitor compound or salt of the invention (drug) is administered as a dry powder blended with inhalation-grade (respiratory-grade) lactose, i.e. as a dry powder composition. The target quantity of dry powder composition administered i.t. to each animal is 2 mg. This remains constant throughout the studies. To achieve different doses, blends of the drug dry powder and lactose, containing different concentrations of the PDE4 inhibitor compound or salt of the invention (drug), are prepared. […]

[4] = Gravimetric vapour sorption / moisture uptake of solid forms; format: physicochemical
Text: In addition, water is believed to be readily lost from the Form 2 hydrate (a) on heating to only slightly above room temperature and/or (b) on reduction in the relative humidity (R^H) (e.g. water appears to be lost from the Form 2 hydrate when the R^H is reduced to 0% R^H).

[5] = test system: COPD patients; conditions: cited from earlier work
[6] = test system: COPD patients; conditions: cited from earlier work; remark: listed apart in the source
[7] = test system: humans with histories of allergic rhinitis; conditions: orally 500 ug once daily for 9 days, intranasal allergen provocation (pollen extracts); cited from earlier work

COc1ccc(C2CNC(=O)NC2)cc1O[C@H]1C[C@@H]2CC[C@H]1C2 [CP80,633]
inflammatory parameters ([1]; atopic dermatitis patients, 0.5% ointment, twice daily topical application): reductions of inflammatory parameters

CCc1nc2c(cnn2CC)c(NC2CCOCC2)c1CNC(=O)c1ccc(NC(=O)CCCCCCCN(C)CCO)cc1 [Example 1A2, N-{[1,6-diethyl-4-(tetrahydro-2H-pyran-4-ylamino)-1H-pyrazolo[3,4-b]pyridin-5-yl]methyl}-4-({8-[(2-hydroxyethyl)(methyl)amino]octanoyl}amino)benzamide monohydrochloride]
estimated ED50 for inhibition of LPS-induced nasal neutrophilia ([2]; rat, i.n., micronised, aqueous solution in 0.2% Tween 80 in PBS, about 30 minutes prior to LPS challenge): approximately 4.6 micrograms/kg body weight
inhibition (arithmetic mean) of LPS-induced nasal neutrophilia ([2]; about 1 micrograms/kg): essentially no inhibition
inhibition (arithmetic mean) of LPS-induced nasal neutrophilia ([2]; about 3 micrograms/kg): small and non-statistically-significant inhibition
inhibition (arithmetic mean) of LPS-induced nasal neutrophilia ([2]; about 10 micrograms/kg): about 62%
inhibition (arithmetic mean) of LPS-induced nasal neutrophilia ([2]; about 100 micrograms/kg): about 79%
arithmetic mean inhibition of LPS-induced pulmonary neutrophilia ([3]; about 10 micrograms/kg): about 29%
arithmetic mean inhibition of LPS-induced pulmonary neutrophilia ([3]; about 30 micrograms/kg): about 44%
arithmetic mean inhibition of LPS-induced pulmonary neutrophilia ([3]; about 100 micrograms/kg): about 39%
inhibition of LPS-induced pulmonary neutrophilia ([3]; about 100 micrograms/kg, about 4 hours prior to LPS): about 60%
arithmetic mean inhibition of LPS-induced pulmonary neutrophilia ([3]; about 300 micrograms/kg): about 55%

CCc1nc2c(cnn2CC)c(NC2CCOCC2)c1CNC(=O)c1ccc(NC(=O)CCCCCCCN(C)CCO)cc1 [N-{[1,6-Diethyl-4-(tetrahydro-2H-pyran-4-ylamino)-1H-pyrazolo[3,4-b]pyridin-5-yl]methyl}-4-({8-[(2-hydroxyethyl)(methyl)amino]octanoyl}amino)benzamide monohydrochloride]
moisture uptake, % weight gain ([4]; 25° C., RH increased from 30% to 75%): about 0.5%

CCc1nc2c(cnn2CC)c(NC2CCOCC2)c1CNC(=O)c1ccc(NC(=O)CCCCCCCN(C)CCO)cc1 [N-{[1,6-diethyl-4-(tetrahydro-2H-pyran-4-ylamino)-1H-pyrazolo[3,4-b]pyridin-5-yl]methyl}-4-({8-[(2-hydroxyethyl)(methyl)amino]octanoyl}amino)benzamide monohydrochloride]
propensity to take up water as relative humidity increases ([4]; compared with Form 1 anhydrate): greater propensity to take up water than the crystalline monohydrochloride Form 1 anhydrate

COc1ccc([C@]2(C#N)CC[C@@H](C(=O)O)CC2)cc1OC1CCCC1 [cilomilast]
antiinflammatory effects [5]: appears to have antiinflammatory effects
forced expiratory volume in 1 s (FEV1) ([6]; 15 mg orally twice daily): appears to improve

Nc1nc2c([nH]1)c(=O)n(CC1CC1)c(=O)n2CC1CC1 [cipamfylline]
efficacy in the treatment of atopic dermatitis patients ([1]; 0.15% cream, versus vehicle and hydrocortisone 17-butyrate (0.1%) cream): significantly more effective than vehicle, but significantly less effective than hydrocortisone 17-butyrate (0.1%) cream

O=C(Nc1c(Cl)cncc1Cl)c1ccc(OC(F)F)c(OCC2CC2)c1 [roflumilast]
FEV1 [6]: small improvements
rhinal airflow during the treatment period (compared to placebo) [7]: effective in improving rhinal airflow
